pIC50: −log10 of the molar value.

Our source for the IC50 values is US8927715B2, “Inhibitors of 11β-hydroxysteroid dehydrogenase type 1” (Vitae Pharmaceuticals, Inc., priority 2006, dated 2015).

Test [1] addresses T1, human 11β-HSD1 (Homo sapiens, UniProt P28845). Description: Scintillation Proximity Assay: inhibition of purified 11β-HSD1 (Biological Test Example 1). Format: biochemical. Set-up: made in house; host or cells: E. coli. Conditions: purified recombinant 11β-HSD1, SPA; read-out: Biological Test Example 1 (IC50 class). How it is done: The inhibition of purified 11β-HSD1 by compounds of Formula I or I* is measured using a Scintillation Proximity Assay. All reactions are carried out at room temperature in 96 well flexible Microbeta reaction plates. First, 1 μL of a 0.1 mM solution of a compound of Formula I or I* is mixed in DMSO diluted in half-log increments (8 points) starting at 1 μM final concentration. To this dot is added 50 μL of substrate solution (50 mM HEPES, pH 7.4, 100 mM KCl, 5 mM NaCl, 2 mM MgCl2 containing 20 μM ^3H cortisone, 1 mM NADPH). […] The reaction is then incubated for 90 minutes, and stopped by adding 50 μl of SPA bead mix (18-β-glycyrrhetinic acid, 10 μM final, 5 mg/ml protein A coated YSi SPA beads, and 1 μg/ml α-cortisol antibody (East Coast Biologics)). The plate is shaken for 120 minutes, and the radioactivity corresponding to ^3H cortisol is measured on a Wallac Microbeta.
Target sequence in this assay (P28845 whole entry, species assumed): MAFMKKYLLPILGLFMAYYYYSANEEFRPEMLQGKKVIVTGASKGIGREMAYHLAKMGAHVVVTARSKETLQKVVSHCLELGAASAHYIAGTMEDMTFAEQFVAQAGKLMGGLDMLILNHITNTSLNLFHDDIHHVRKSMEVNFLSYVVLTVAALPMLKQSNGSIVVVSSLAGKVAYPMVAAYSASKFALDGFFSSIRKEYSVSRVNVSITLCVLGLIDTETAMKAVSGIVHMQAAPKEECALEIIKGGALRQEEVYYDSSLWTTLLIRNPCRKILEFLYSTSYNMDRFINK

Test [2] concerns the target T1, human 11β-HSD1. Description: Inhibition of a microsomal preparation of 11β-HSD1, SPA (Biological Test Example 2). Type of test: biochemical. More on the design: expressed in transfected cells; host or cells: CHO cells (microsomes). Conditions: read-out: Biological Test Example 2 (IC50 class). In a few lines:
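[3H]cortisol formation quantified by scintillation proximity with anti-cortisol antibody on protein A beads, reaction quenched by 10 nM 18β-glycyrrhetinic acid. Enzyme source: CHO-cell microsomes expressing human 11β-HSD1, 10-20 μg/ml protein, incubated 90 min at room temperature following 10 min pre-incubation.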
Target sequence in this assay (P28845 whole entry): as the sequence (P28845 whole entry, species assumed) above

For `CC(C)(C)OC(=O)N1CCC2(CCCN(C(=O)NC3C4CC5CC(C4)CC3C5)C2)C1` (racemic) [Example 10, (±)-tert-Butyl 7((2-adamantyl)carbamoyl)-2,7-diazaspiro[4.5]decane-2-carboxylate], the pIC50 at human 11β-HSD1 [1] was 6.00 to 7.30.
On the same count and under the same terms, with `O=C(O)C1CC2(CCN(C(=O)NC3C4CC5CC(C4)CC3C5)CC2)c2ccccc21` (racemic) [Example 12, (±)-1′-((2-Adamantyl)carbamoyl)-2,3-dihydrospiro[indene-1,4′-piperidine]-3-carboxylic acid] the figure was over 7.30; with `O=C(O)C1CC2(CCN(C(=O)NC3C4CC5CC(C4)CC3C5)CC2)Oc2ccccc21` (racemic) [Example 13, (±)-1′-((2-Adamantyl)carbamoyl)spiro[chroman-2,4′-piperidine]-4-carboxylic acid], 6.00 to 7.30; with `CCOC(=O)CC1CC2(CCN(C(=O)NC3C4CC5CC(C4)CC3C5)CC2)Oc2ccccc21` (racemic) [Example 18, (±)-Ethyl 2-1′-((2-adamantyl)carbamoyl)spiro[chroman-2,4′-piperidine]-4-yl)acetate], 6.00 to 7.30.
On the same count and under the same terms, as for `COC(=O)CC1CC2(CCN(C(=O)OC3C4CC5CC(C4)CC3C5)CC2)c2ccccc21` (racemic) [Example 24, (±)-2-Adamantyl 3-(2-methoxy-2-oxoethyl)-2,3-dihydrospiro[indene-1,4′-piperidine]-1′-carboxylate], the figure is over 7.30.
As to `CNC(=O)CC1CC2(CCN(C(=O)OC3C4CC5CC(C4)CC3C5)CC2)c2ccccc21` (racemic) [Example 26, (±)-2-Adamantyl 3-(2-(methylamino)-2-oxoethyl)-2,3-dihydrospiro[indene-1,4′-piperidine]-1′-carboxylate], on human 11β-HSD1 [1], the negative-log IC50 (pIC50) was over 7.30.
The same measure, in the same setting: with `CC(C)(C)OC(=O)N1CC2(CCN(C(=O)NC3C4CC5CC(C4)CC3C5)CC2)c2ccccc21` (centres unmarked) [Example 1, Tert-butyl 1′-((2-adamantyl)carbamoyl)spiro[indoline-3,4′-piperidine]-1-carboxylate] the figure was over 7.30.
Same read-out and setting: as for `O=C(NC1C2CC3CC(C2)CC1C3)N1CCC2(CC1)CNc1ccccc12` (centres unmarked) [Example 2, N-(2-Adamantyl)spiro[indoline-3,4′-piperidine]-1′-carboxamide], the figure is over 7.30.
Same read-out and setting: with `CC(=O)N1CC2(CCN(C(=O)NC3C4CC5CC(C4)CC3C5)CC2)c2ccccc21` (centres unmarked) [Example 7, 1-Acetyl-N-(2-adamantyl)spiro[indoline-3,4′-piperidine]-1′-carboxamide] the figure was over 7.30; with `CC(C)(C)OC(=O)N1CCC2(CCN(C(=O)NC3C4CC5CC(C4)CC3C5)CC2)CC1` (centres unmarked) [Example 8], 6.00 to 7.30; with `CC(C)(C)OC(=O)N1CCC2(CCN(C(=O)NC3C4CC5CC(C4)CC3C5)CC2)C1` (centres unmarked) [Example 9, tert-Butyl 8-((2-adamantyl)carbamoyl)-2,8-diazaspiro[4.5]decane-2-carboxylate], 6.00 to 7.30.
On to `O=C(O)C1=CC2(CCN(C(=O)NC3C4CC5CC(C4)CC3C5)CC2)c2ccccc21` (centres unmarked) [Example 11, 1′-((2-Adamantyl)carbamoyl)spiro[indene-1,4′-piperidine]-3-carboxylic acid], for which the pIC50 at human 11β-HSD1 [1] was over 7.30.
The same measure, in the same setting: as for `CCOC(=O)C1=CC2(CCN(C(=O)NC3C4CC5CC(C4)CC3C5)CC2)c2ccccc21` (centres unmarked) [Example 15, Ethyl 1′-((2-adamantyl)carbamoyl)spiro[indene-1,4′-piperidine]-3-carboxylate], the figure is over 7.30; as for `CS(=O)(=O)N1CC2(CCN(C(=O)NC3C4CC5CC(C4)CC3C5)CC2)c2ccccc21` (centres unmarked) [Example 19, N-(2-Adamantyl)-1-(methylsulfonyl)spiro[indoline-3,4′-piperidine]-1′-carboxamide], over 7.30.
The same measure, in the same setting: as for `O=C(OC1C2CC3CC(C2)CC1C3)N1CCC2(CC1)CNc1ccccc12` (centres unmarked) [Example 20, 2-Adamantyl spiro[indoline-3,4′-piperidine]-1′-carboxylate], the figure is over 7.30; as for `O=C(OC1C2CC3CC(C2)CC1C3)N1CCC2(CC1)CNc1ccc(F)cc12` (centres unmarked) [Example 21, 2-Adamantyl 5-fluorospiro[indoline-3,4′-piperidine]-1′-carboxylate], over 7.30.
Same read-out and setting: with `Cc1ccc2c(c1)C1(CCN(C(=O)OC3C4CC5CC(C4)CC3C5)CC1)CN2` (centres unmarked) [Example 22, 2-Adamantyl 5-methylspiro[indoline-3,4′-piperidine]-1′-carboxylate] the figure was over 7.30.
As for `CC(=O)N1CC2(CCN(C(=O)OC3C4CC5CC(C4)CC3C5)CC2)c2ccccc21` (centres unmarked) [Example 23, 2-Adamantyl 1-acetylspiro[indoline-3,4′-piperidine]-1′-carboxylate], the pIC50 at human 11β-HSD1 [2] and on human 11β-HSD1 [1] was over 7.30 each time.
For `O=C(O)CC1CC2(CCN(C(=O)OC3C4CC5CC(C4)CC3C5)CC2)c2ccccc21` (centres unmarked) [Example 25, 2-(1′-((2-Adamantyloxy)carbonyl)-2,3-dihydrospiro[indene-1,4′-piperidine]-3-yl)acetic acid], the pIC50 on human 11β-HSD1 [1] was over 7.30.
In the case of `CC(C)(C)OC(=O)N1Cc2ccccc2C2(CCN(C(=O)NC3C4CC5CC(C4)CC3C5)CC2)C1` (centres unmarked) [Example 29, Tert-butyl 1′-((2-adamantyl)carbamoyl)-1H-spiro[isoquinoline-4,4′-piperidine]-2(3H)-carboxylate], the pIC50 at human 11β-HSD1 [1] was over 7.30.
Regarding `O=C(NC1C2CC3CC(C2)CC1C3)N1CCC2(CC1)CNCc1ccccc12` (centres unmarked) [Example 30, N-(2-Adamantyl)-2,3-dihydro-1H-spiro[isoquinoline-4,4′-piperidine]-1′-carboxamide], the pIC50 on human 11β-HSD1 [2] and at human 11β-HSD1 [1] was over 7.30 in each case.
`CC(=O)N1Cc2ccccc2C2(CCN(C(=O)NC3C4CC5CC(C4)CC3C5)CC2)C1` (centres unmarked) [Example 31, 2-Acetyl-N-(2-adamantyl)-2,3-dihydro-1H-spiro[isoquinoline-4,4′-piperidine]-1′-carboxamide]: the negative-log IC50 (pIC50) at human 11β-HSD1 [2] and at human 11β-HSD1 [1] was over 7.30 in each case.
Regarding `O=C(OC1C2CC3CC(C2)CC1C3)N1CCC2(CC1)OCc1ccccc12` (centres unmarked) [Example 84, 2-Adamantyl 3H-spiro[isobenzofuran-1,4′-piperidine]-1′-carboxylate], the negative-log IC50 (pIC50) at human 11β-HSD1 [2] and at human 11β-HSD1 [1] was over 7.30 throughout.
In the case of `O=C(O)CCCC(=O)N1Cc2ccccc2C2(CCN(C(=O)NC3C4CC5CC(C4)CC3C5)CC2)C1` (centres unmarked) [Example 95, 5-(1′(2-Adamantylcarbamoyl)-1H-spiro[isoquinoline-4,4′-piperidine]-2(3H)-yl)-5-oxopentanoic acid], the negative-log IC50 (pIC50) at human 11β-HSD1 [2] is over 7.30; on human 11β-HSD1 [1], 6.00 to 7.30.
For `CC(C)(C)OC(=O)N1CC2(CCN(C(=O)OC3C4CC5CC(C4)CC3C5)CC2)c2ccccc21` (centres unmarked) [Example 128, 1-Tert-butyl 1′-(2-adamantyl)spiro[indoline-3,4′-piperidine]-1,1′-dicarboxylate], the pIC50 at human 11β-HSD1 [1] is 6.00 to 7.30.
Same read-out and setting: as for `CC(C)(C)OC(=O)N1CC2(CCN(C(=O)OC3C4CC5CC(C4)CC3C5)CC2)c2cc(F)ccc21` (centres unmarked) [Example 129, 1-Tert-butyl 1′-(2-adamantyl) 5-fluorospiro[indoline-3,4′-piperidine]-1,1′-dicarboxylate], the figure is 6.00 to 7.30.
Regarding `Cc1ccc2c(c1)C1(CCN(C(=O)OC3C4CC5CC(C4)CC3C5)CC1)CN2C(=O)OC(C)(C)C` (centres unmarked) [Example 130, 1-Tert-butyl 1′-(2-adamantyl) 5-methylspiro[indoline-3,4′-piperidine]-1,1′-dicarboxylate], the pIC50 at human 11β-HSD1 [1] was 6.00 to 7.30.
Same read-out and setting: with “(±)-2-(1′-(Cyclohexylcarbamoyl)spiro[chroman-2,4′-piperidine]-4-yl)acetic acid [Example 14]” the figure was 6.00 to 7.30; with “(±)-Ethyl 1′-(cyclohexylcarbamoyl)-2,3-dihydrospiro[indene-1,4′-piperidine]-3-carboxylate [Example 16]”, over 7.30.
On the same count and under the same terms, as for “(±)-Ethyl 1′-(cyclohexylcarbamoyl)spiro[chroman-2,4′-piperidine]-4-carboxylate [Example 17]”, the figure is 6.00 to 7.30.
